From patent publication US20050239656A1, “Pyridine compounds or salts thereof and herbicides containing the same” (priority 2002, published 2005)

Experiments:
barnyardgrass [1] = test: Test Example 1: foliage treatment, upland pot test; type: in vivo, Echinochloa crus-galli L.; details: active ingredient 1000 g/ha, observed 18th to 23rd day, 0 = non-treated, 100 = complete kill
Summary of the method: (§1)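 Foliage tx, upland soil pots; stages: wheat 1.3-2.4 L, rice 1.2-2.6 L, soybean 0.1-0.4 L, barnyardgrass 1.3-2.8 L. WP/EC diluted, 500 L/ha water + 0.1% (v/v) agricultural spreader, small sprayer. Visual rating d18–23, 0–100% control.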

redroot pigweed [2] = test: Test Example 1: foliage treatment, upland pot test; type: in vivo, Amaranthus retroflexus L.; details: active ingredient 1000 g/ha, observed 18th to 23rd day, 0 = non-treated, 100 = complete kill
barnyardgrass [3] = test: Test Example 3: paddy pot test, application under submerged conditions; type: in vivo, Echinochloa crus-galli L.; details: active ingredient 250 g/ha; submerged application at 0.5 leaf stage; visually observed 14 days after application; 0 = non-treated, 100 = complete kill
Summary of the method: (§2)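 Visual rating of growth control (0% equals untreated, 100% complete kill) made 14 days after treatment. Compound, formulated as wettable powder or emulsifiable concentrate and diluted in water, was pipetted under submerged conditions at predetermined active-ingredient doses once weeds reached 0.5-leaf (barnyardgrass, bulrush) or primary-leaf (wapato, from tubers) stage. Pots of greenhouse paddy soil held 3–4 cm flooding.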

rice [4] = test: Test Example 1: foliage treatment, upland pot test; type: in vivo, Oryza sativa L.; details: crop, active ingredient 1000 g/ha, observed 18th to 23rd day, 0 = non-treated, 100 = complete kill
Summary of the method: as §1

rice [5] = test: Test Example 2: soil surface treatment, upland pot test; type: in vivo, Oryza sativa L.; details: active ingredient 1000 g/ha, observed 20th to 28th day
Summary of the method: (§3)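 Pre-emergence soil-surface spray, 1 d after sowing; 1/170,000 ha pots, upland soil; WP or EC formulation, set a.i. rate, 1,500 L/ha water; visual growth-control score 0–100% at days 20–28 post-treatment.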

soybean [6] = test: as above; type: in vivo, Glycine max Merr.; details: active ingredient 1000 g/ha, observed 20th to 28th day
Summary of the method: as §3

crabgrass [7] = test: as above; type: in vivo, Digitaria sanguinalis L.; details: active ingredient 1000 g/ha, observed 20th to 28th day
Summary of the method: as §3

japanese ribbon wapato = test: Test Example 3: paddy pot test, application under submerged conditions; type: in vivo, Sagittaria pygniaea; details: active ingredient 250 g/ha; submerged application at primary leaf stage; visually observed 14 days after application; 0 = non-treated, 100 = complete kill
Summary of the method: as §2

prickly sida [8] = test: Test Example 2: soil surface treatment, upland pot test; type: in vivo, Sida spinosa L.; details: active ingredient 1000 g/ha, observed 20th to 28th day
Summary of the method: as §3

soybean [9] = test: Test Example 1: foliage treatment, upland pot test; type: in vivo, Glycine max Merr.; details: crop, active ingredient 1000 g/ha, observed 18th to 23rd day, 0 = non-treated, 100 = complete kill
Summary of the method: as §1

tall morningglory = test: Test Example 1: foliage treatment, upland pot test; type: in vivo, Ipomoea purpurea L.; details: active ingredient 1000 g/ha, observed 18th to 23rd day, 0 = non-treated, 100 = complete kill
From the text: Upland field soil was put into a 1/170,000 ha pot, and seed of various plants were sown. Then, when the plants reached predetermined leaf stages ((1) barnyardgrass: 1.3 to 2.8 leaf stages, (2) crabgrass: 1.0 to 2.8 leaf stages, (3) green foxtail: 1.3 to 2.6 leaf stages, (4) redroot pigweed: 0.1 to 1.2 leaf stages, (5) prickly sida: 0.1 to 1.2 leaf stages, (6) velvetleaf: 0.1 to 1.2 leaf stages, (7) tall morningglory: 0.1 to 1.5 leaf stages, (8) rice: 1.2 to 2.6 leaf stages, (9) wheat: 1.3 to 2.4 leaf stages, (10) corn, 2.1 to 3.2 leaf stages, (11) soybean: 0.1 to 0.4 leaf stage), a wettable powder or emulsifiable concentrate having the compound of the present invention formulated in accordance with a usual formulation method, was weighed so that the active ingredient would be a predetermined amount, and diluted with water in an amount of 500 L/ha. To the diluted solution, 0.1% (v/v) of agricultural spreader was added. The herbicide thus adjusted was applied by a small size sprayer for foliage treatment. On the 18th to 23rd days after the application of the herbicide, the growth of the respective plants was visually observed, and the herbicidal effects were evaluated by the growth controlling degrees (%) ranging from 0 (equivalent to the non-treated plot) to 100 (complete kill), whereby the results shown in Table 3, were obtained.

wheat [10] = test: Test Example 1: foliage treatment, upland pot test; type: in vivo, Triticum spp.; details: crop, active ingredient 1000 g/ha, observed 18th to 23rd day, 0 = non-treated, 100 = complete kill
Summary of the method: as §1

prickly sida [11] = test: Test Example 1: foliage treatment, upland pot test; type: in vivo, Sida spinosa L.; details: active ingredient 1000 g/ha, observed 18th to 23rd day, 0 = non-treated, 100 = complete kill
corn [12] = test: Test Example 1: foliage treatment, upland pot test; type: in vivo, Zea mays L.; details: crop, active ingredient 1000 g/ha, observed 18th to 23rd day, 0 = non-treated, 100 = complete kill
Summary of the method: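 In this upland pot foliage test, corn plants at 2.1 to 3.2 leaf stages were sprayed by a small size sprayer. The spray was a conventionally formulated wettable powder or emulsifiable concentrate weighed to a set active ingredient amount, diluted in water at 500 L/ha, plus 0.1% (v/v) agricultural spreader. Visual assessment on days 18 to 23 gave growth controlling degree (%), where 0 equals untreated and 100 means complete kill.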

crabgrass [13] = test: Test Example 1: foliage treatment, upland pot test; type: in vivo, Digitaria sanguinalis L.; details: active ingredient 1000 g/ha, observed 18th to 23rd day, 0 = non-treated, 100 = complete kill
japanese bulrush = test: Test Example 3: paddy pot test, application under submerged conditions; type: in vivo, Scirpus juncoides; details: active ingredient 250 g/ha; submerged application at 0.5 leaf stage; visually observed 14 days after application; 0 = non-treated, 100 = complete kill
Summary of the method: as §2

green foxtail [14] = test: Test Example 2: soil surface treatment, upland pot test; type: in vivo, Setaria viridis L.; details: active ingredient 1000 g/ha, observed 20th to 28th day
Summary of the method: as §3

velvetleaf [15] = test: as above; type: in vivo, Abutilon theophrasti MEDIC.; details: active ingredient 1000 g/ha, observed 20th to 28th day
Summary of the method: as §3

green foxtail [16] = test: Test Example 1: foliage treatment, upland pot test; type: in vivo, Setaria viridis L.; details: active ingredient 1000 g/ha, observed 18th to 23rd day, 0 = non-treated, 100 = complete kill
rice (var. Nihonbare) = test: Test Example 3: paddy pot test, transplanted rice; type: in vivo, Oryza sativa L.; details: active ingredient 250 g/ha, applied 4th day after transplantation, visually observed 21st day after application, 0 = non-treated, 100 = complete kill
Summary of the method: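 Visual crop-injury rating (0 = as untreated, 100 = complete kill, %) taken 21 days post-application. Treatment: formulated compound, water-diluted, pipetted into 3–4 cm flood water at a preset active-ingredient dose, 4 days after transplanting 2-leaf Nihonbare rice 3 cm deep in puddled paddy soil.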

wheat [17] = test: Test Example 2: soil surface treatment, upland pot test; type: in vivo, Triticum spp.; details: active ingredient 1000 g/ha, observed 20th to 28th day
Summary of the method: as §3

barnyardgrass [18] = test: as above; type: in vivo, Echinochloa crus-galli L.; details: active ingredient 1000 g/ha, observed 20th to 28th day, 0 = non-treated, 100 = complete kill
Summary of the method: as §3

corn [19] = test: as above; type: in vivo, Zea mays L.; details: active ingredient 1000 g/ha, observed 20th to 28th day
Summary of the method: as §3

velvetleaf [20] = test: Test Example 1: foliage treatment, upland pot test; type: in vivo, Abutilon theophrasti MEDIC.; details: active ingredient 1000 g/ha, observed 18th to 23rd day, 0 = non-treated, 100 = complete kill
redroot pigweed [21] = test: Test Example 2: soil surface treatment, upland pot test; type: in vivo, Amaranthus retroflexus L.; details: active ingredient 1000 g/ha, observed 20th to 28th day
Summary of the method: as §3

Row | Compound | Growth controlling degree (%) Barnyardgrass (barnyardgrass [1]) [%] | Growth controlling degree (%) Redroot pigweed (redroot pigweed [2]) [%] | Growth controlling degree (%) Barnyardgrass (barnyardgrass [3]) [%] | Growth controlling degree (%) Rice (rice [4]) [%] | Growth controlling degree (%) Rice (rice [5]) [%] | Growth controlling degree (%) Soyabean (soybean [6]) [%] | Growth controlling degree (%) Crabgrass (crabgrass [7]) [%] | Growth controlling degree (%) Japanese ribbon wapato (japanese ribbon wapato) [%] | Growth controlling degree (%) Prickly sida (prickly sida [8]) [%] | Growth controlling degree (%) Soybean (soybean [9]) [%] | Growth controlling degree (%) Tall morningglory (tall morningglory) [%] | Growth controlling degree (%) wheat (wheat [10]) [%] | Growth controlling degree (%) Prickly sida (prickly sida [11]) [%] | Growth controlling degree (%) Corn (corn [12]) [%] | Growth controlling degree (%) Crabgrass (crabgrass [13]) [%] | Growth controlling degree (%) Japanese bulrush (japanese bulrush) [%] | Growth controlling degree (%) Green foxtail (green foxtail [14]) [%] | Growth controlling degree (%) Velvetleaf (velvetleaf [15]) [%] | Growth controlling degree (%) Green foxtail (green foxtail [16]) [%] | Growth controlling degree (%) Velvetleaf (velvetleaf [20]) [%] | other results
1 | CC(C)C(c1cnccc1C(F)(F)F)N(C)C(=O)Cc1ccccc1Br (stereo not shown) [I-15] | 70 | 70 | 100 | 10 | 40 | 20 | 100 | 100 | 70 | 40 | 80 | 20 | 80 | 0 | 70 | 95 | 100 | 60 | 80 | 70 | Growth controlling degree (%) Rice (rice (var. Nihonbare)): 10%; Growth controlling degree (%) wheat (wheat [17]): 30%; Growth controlling degree (%) Barnyardgrass (barnyardgrass [18]): 100%; Growth controlling degree (%) Corn (corn [19]): 40%; Growth controlling degree (%) Redroot pigweed (redroot pigweed [21]): 70%
2 | CC(C)C(c1cnccc1C(F)(F)F)N(C)C(=O)Cc1cccc(Br)c1 (stereo not shown) [I-16] | 70 | 80 | 100 | 10 | 30 | 0 | 100 | 30 | 80 | 70 | 80 | 40 | 80 | 0 | 80 | 90 | 100 | 60 | 70 | 80 | Growth controlling degree (%) Rice (rice (var. Nihonbare)): 10%; Growth controlling degree (%) wheat (wheat [17]): 30%; Growth controlling degree (%) Barnyardgrass (barnyardgrass [18]): 98%; Growth controlling degree (%) Corn (corn [19]): 30%; Growth controlling degree (%) Redroot pigweed (redroot pigweed [21]): 95%
3 | CC(C)COC(=O)N(C)C(c1cnccc1C(F)(F)F)c1cccc2ccccc12 (stereo not shown) [I-52] | 50 | 60 |  | 10 |  |  |  |  |  | 0 | 95 | 10 | 70 | 60 | 80 |  |  |  | 20 | 95 | 
